Patent US6713628B2, “Process for preparing pharmacologically acceptable salt of N-(1(S)-ethoxycarbonyl-3-phenylpropyl)-L-alanyl-amino acid” (Kaneka Corporation, priority 1997, dated 2004)

Legend:
Type in all cases: physicochemical
[1] = Formation of diketopiperazine derivative (3) from the Example 10 oil in ethyl acetate of given water content, 10° C., 6 hours, HPLC (Example 10); conditions: about 12% by weight solution
Protocol: (§1) The HPLC analysis was carried out under the following conditions:
To 5.00 g (28.2 mmol) of 1,2,3,4-tetrahydroisoquinoline-3-carboxylic acid were added 20 ml of ethyl acetate and 10 ml of H2O and, then, the pH was adjusted to 10.5 with 30% by weight NaOH aqueous solution. The inner temperature was regulated to 20° C. and, then, 4.31 g (14.1 mmol) of a crystal of N-(1(S)-ethoxycarbonyl-3-phenylpropyl)-L-alanine.N-carboxyanhydride was slowly added over 5 hours with stirring. During the addition, the reaction mixture was maintained at a pH of 10.5±1.0 with adding dropwise 30% by weight NaOH aqueous solution, and simultaneously, the inner temperature was maintained at 20° C. and the agitating power was maintained at 1.3 kW/m^3. After completion of the addition, the stirring was continued for 2 hour under the same conditions. The mixture was cooled to 5° C., and the pH thereof was adjusted to 4.5±0.2 with 35% by weight HCl. Then, under the same conditions, the stirring was continued for 10 minutes to complete the decarboxylation. The deposited material was removed by filtration under reduced pressure, and the organic phase was separated at 5° C. and the water phase was further extracted once with 20 ml of ethyl acetate at 10° C. The resulting organic phases were mixed and then washed three times with H2O in an amount of 5% by volume of the organic phase at 5° C. The organic phase was concentrated under reduced pressure to obtain 6.43 g of an oil. The oil was dissolved in ethyl acetate having a water content shown in Table 5 to prepare a solution having a concentration of about 12% by weight, and the resulting solution was stirred for 6 hours at 10° C. The amount produced of the diketopiperazine derivative (3) was analyzed with HPLC, and the relation between water content and the average increase in the diketopiperazine derivative (3) per hour was investigated.

[2] = Formation of diketopiperazine derivative (3) from enalapril maleate in ethyl acetate containing 0.1% water or in H2O, 60° C., 6 hours, HPLC (Example 9); conditions: 16% by weight
Protocol: as §1
According to Example 1, N-(1(S)-ethoxycarbonyl-3-phenylpropyl)-L-alanyl-L-proline maleate was prepared. Thereto was added ethyl acetate containing 0.1% water or H2O to prepare a solution having a concentration of 16% by weight, and the solution was warmed to 60° C. and stirred for 6 hours. The amount produced of the diketopiperazine derivative (3) was analyzed with HPLC, and the relation between water content and the average increase in the diketopiperazine derivative (3) per hour was investigated.

[3] = Formation of diketopiperazine derivative (3) from enalapril in ethyl acetate of given water content or in water, 30° C., 6 hours, HPLC (Example 8); conditions: about 13% by weight solution
Protocol: as §1
According to Example 1, an ethyl acetate solution of N-(1(S)-ethoxycarbonyl-3-phenylpropyl)-L-alanyl-L-proline was prepared. 129.40 Grams of this organic phase was washed twice with 30 ml of saturated brine, and dehydrated with magnesium sulfate. The solvent was concentrated and, then, the concentrated liquid was dried under reduced pressure to obtain an oily reaction product. This product was dissolved in ethyl acetate having a water content shown in Table 3 or water to prepare a solution having a concentration of about 13% by weight, and the solution was warmed to 30° C. and stirred for 6 hours. The amount produced of the diketopiperazine derivative (3) was analyzed with HPLC, and the relation between water content and the average increase in the diketopiperazine derivative (3) per hour was investigated. The molar ratio in Table 3 means mol number of water per 1 mol of N-(1(S)-ethoxycarbonyl-3-phenylpropyl)-L-alanyl-L-proline.

[4] = Partition of enalapril between ethyl acetate and water against temperature, HPLC (Example 11); conditions: ethyl acetate solution + H2O 10% by volume
Protocol: as §1
According to Example 1, an ethyl acetate solution of N-(1(S)-ethoxycarbonyl-3-phenylpropyl)-L-alanyl-L-proline was prepared. To 50 ml of the ethyl acetate solution was added H2O in an amount of 10% by volume (based on ethyl acetate). The mixture was stirred for 10 minutes at each temperature shown in Table 6, and allowed to stand still for 10 minutes and, then, separated. The amount of N-(1(S)-ethoxycarbonyl-3-phenylpropyl)-L-alanyl-L-proline in the water-saturated organic phase was analyzed with HPLC, and the relation between the temperature and the partition ratio to the organic phase was investigated.

CCOC(=O)[C@H](CCc1ccccc1)N[C@@H](C)C(=O)N1Cc2ccccc2C[C@H]1C(=O)O [Example 10]
Average increase per hour of diketopiperazine derivative (3) ([1]; water content 0.1% by weight): 5.3 % by weight/hr | Average increase per hour of diketopiperazine derivative (3) ([1]; water content 1.0% by weight): 2.2 % by weight/hr | Average increase per hour of diketopiperazine derivative (3) ([1]; water content 2.1% by weight): 1.7 % by weight/hr | Average increase per hour of diketopiperazine derivative (3) ([1]; water content 3.8% by weight): 1.3 % by weight/hr

CCOC(=O)[C@H](CCc1ccccc1)N[C@@H](C)C(=O)N1CCC[C@H]1C(=O)O.O=C(O)/C=C\C(=O)O [N-(1(S)-ethoxycarbonyl-3-phenylpropyl)-L-alanyl-L-proline maleate]
Average increase per hour of diketopiperazine derivative (3) ([2]; H2O): 0.06 % by weight/hr | Average increase per hour of diketopiperazine derivative (3) ([2]; ethyl acetate containing 0.1% water): 0.55 % by weight/hr

CCOC(=O)[C@H](CCc1ccccc1)N[C@@H](C)C(=O)N1CCC[C@H]1C(=O)O [N-(1(S)-ethoxycarbonyl-3-phenylpropyl)-L-alanyl-L-proline]
Average increase per hour of diketopiperazine derivative (3) ([3]; ethyl acetate, water content 0.1% by weight (molar ratio 0.1)): 2.85 % by weight/hr | Average increase per hour of diketopiperazine derivative (3) ([3]; ethyl acetate, water content 0.4% by weight (molar ratio 0.6)): 2.06 % by weight/hr | Average increase per hour of diketopiperazine derivative (3) ([3]; ethyl acetate, water content 1.1% by weight (molar ratio 1.6)): 1.32 % by weight/hr | Average increase per hour of diketopiperazine derivative (3) ([3]; ethyl acetate, water content 2.1% by weight (molar ratio 3.1)): 0.99 % by weight/hr | Average increase per hour of diketopiperazine derivative (3) ([3]; ethyl acetate, water content 3.8% by weight (molar ratio 6.1)): 0.48 % by weight/hr | Average increase per hour of diketopiperazine derivative (3) ([3]; ethyl acetate, water content 5.1% by weight (molar ratio 8.2)): 0.39 % by weight/hr | Average increase per hour of diketopiperazine derivative (3) ([3]; water, water content 100% by weight (molar ratio 160)): 0.02 % by weight/hr | Partition ratio to organic phase ([4]; 5° C.): 26% | Partition ratio to organic phase ([4]; 10° C.): 35% | Partition ratio to organic phase ([4]; 20° C.): 57% | Partition ratio to organic phase ([4]; 25° C.): 72% | Partition ratio to organic phase ([4]; 30° C.): 88% | Partition ratio to organic phase ([4]; 40° C.): 94%
